Experiment [1] has as its system mAb H44/58. The experiment in a line: SPOT peptide immunoblot, mAb H44/58. The class given is binding, mouse. Particulars: Membrane 2 (cyclic peptides), synthesised with pVIII flanking residues. The text has this:
Another experiment for determining the best peptide candidates for immunisation trials is whether chemically synthesized peptides are recognized by at least one anti-MenB LOS mAb (and preferably not by irrelevant mAbs). This can be assessed on SPOT synthesized peptides (peptides synthesized directly on a cellulose membrane). This membrane can be tested with different mAbs by repetitive immunoblottings and chemiluminescent detection. Peptides may be synthesised with 3 residues originating from the pVIII protein sequence on each end of the peptide. Indeed, the primary structure of the peptides expressed in fusion with pVIII on the surface of the bacteriophage is as follows (x for any residue in the library):
For example linear peptides comprising peptide No. 61 from Table 2 (GEFPRPHFGAPPDPA) and peptide No. 83 (GEFAERSLWYYPDPA) were synthesised on one membrane, and cyclised peptides comprising peptide No. 50 from Table 2 (GEFCSSYSYVHDSCGDP), peptide 14 (GEFCSHAPPYDRVCGDP) and peptide 25 (GEFCRAPPYDTIMCGDP) were synthesised on another.
The protocol used to probe these membranes with mAbs was the one provided by Genosys, with some modifications, especially for the regeneration of membranes with cyclised peptides. […]

Experiment [2] concerns mAb H44/58. The experiment in a line: Phage-ELISA with mAb H44/58. The experiment is classed as binding, mouse. Particulars: peptide-on-phage. The method, then: Phages were coated at 5×10^11 particules/ml on MaxiSorp multiwell plates. Coating was performed overnight at 4° C. with 100 μl/well. Plates were saturated with 5% (v/v) skimmed milk in TBS for 2 hours at 37° C. and washed 5 times with TBS-Tween20 0.05% (v/v). The mAbs were then incubated in the coated wells for 1 hour at 37° C., washed 5 times, and GAM-HRP conjugate (1500-fold dilution, Dako, Denmark) was added for 1 hour at 37° C. to detect the binding of the mAb to the phages. After 5 washings, the peroxidase activity was monitored by addition of the K-Blue® substrate (Neogen, Lexington, USA) at room temperature for 20 minutes. Reaction was stopped by addition of 25 μl of 2N H2SO4. Reading was performed at 450-630 nm. Each phage was coated in triplicate for testing with each mAb.
A general note: In an ELISA, binding on a coated surface is turned into a signal by an enzyme label.

In the case of CRAPPYDTIMC [Peptide 25], the “SPOT recognition by mAb 58 (H44/58)” value in the experiment on mAb H44/58 [1] is “positive”. Besides, the “Phage-ELISA result with mAb H44/58” value in the experiment on mAb H44/58 [2] is “positive”.
